{"source": "patent US20260027126A1", "about": "“COMBINATION THERAPY FOR TREATING CANCERS” (GEISTLICH PHARMA AG, priority 2022, published 2026)", "key": {"cancer cells": {"test_system": "cancer cells", "assay": "glycolysis and ATP synthesis in cancer cells", "type": "cell-based, Human", "description": "(§1) In vitro assays: Cell viability assay, Western blotting, Colony formation assay, Reverse-phase protein array, and Ultra-high resolution mass spectrometry analysis were performed."}, "mTOR [1]": {"test_system": "mTOR", "assay": "Reverse Phase Protein Array / Western blotting of ovarian cancer cells: mTOR", "type": "cell-based, Human", "description": "(§2) Human Ovarian cancer cell lines: A2780, Coav3, HeyA8, HeyA8-MDR, Kuramochi, OVCAR3, OVCAR5, OVCAR8, and SKOV3 were obtained and used in studies.\nas §1"}, "hexokinase2": {"target": "T1, hexokinase2 (Homo sapiens, UniProt P52789)", "T1 construct": "endogenous in cells; host or cells: human ovarian cancer cell lines", "T1 sequence (P52789 1-917)": "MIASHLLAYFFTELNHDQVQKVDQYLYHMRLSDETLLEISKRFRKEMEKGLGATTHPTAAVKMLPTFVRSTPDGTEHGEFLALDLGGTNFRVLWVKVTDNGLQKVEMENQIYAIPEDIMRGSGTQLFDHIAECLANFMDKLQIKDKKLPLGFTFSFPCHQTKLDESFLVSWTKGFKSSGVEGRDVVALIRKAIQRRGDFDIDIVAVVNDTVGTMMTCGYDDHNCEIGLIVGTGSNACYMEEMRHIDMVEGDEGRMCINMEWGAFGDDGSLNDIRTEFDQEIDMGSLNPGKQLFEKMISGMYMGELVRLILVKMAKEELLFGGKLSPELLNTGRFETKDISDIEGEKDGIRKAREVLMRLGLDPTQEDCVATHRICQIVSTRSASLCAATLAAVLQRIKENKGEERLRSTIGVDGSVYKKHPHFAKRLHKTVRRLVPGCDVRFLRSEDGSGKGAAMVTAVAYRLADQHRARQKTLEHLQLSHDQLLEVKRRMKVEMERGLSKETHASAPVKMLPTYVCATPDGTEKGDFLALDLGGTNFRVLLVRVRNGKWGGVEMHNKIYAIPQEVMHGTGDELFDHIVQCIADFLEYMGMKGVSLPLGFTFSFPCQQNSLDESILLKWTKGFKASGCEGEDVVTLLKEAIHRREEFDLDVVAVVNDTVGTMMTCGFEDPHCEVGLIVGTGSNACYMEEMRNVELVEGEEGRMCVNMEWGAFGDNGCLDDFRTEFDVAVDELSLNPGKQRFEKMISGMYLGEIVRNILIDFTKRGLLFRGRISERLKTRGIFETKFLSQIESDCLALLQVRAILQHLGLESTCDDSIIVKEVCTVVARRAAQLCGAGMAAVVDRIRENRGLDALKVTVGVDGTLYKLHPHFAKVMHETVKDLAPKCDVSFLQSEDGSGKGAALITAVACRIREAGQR", "assay": "hexokinase2 activity and expression (ultra-high resolution mass spectrometry analysis, FIG. 16)", "type": "cell-based", "details": "GP-2250 treatment of cancer cells", "description": "as §2, §1"}, "mTOR [2]": {"test_system": "mTOR", "assay": "in vivo pharmacodynamic experiment, OVCAR8 mouse model: mTOR", "details": "dose of 500 mg/kg", "description": "(§3) In vivo model of ovarian cancer: Pharmacodynamic study and therapeutic experiment using OVCAR8 ovarian cancer model were performed.\n(§4) FIGS. 17A-17B show pharmacodynamics studies of GP-2250."}, "HIF-1α": {"test_system": "HIF-1α", "assay": "Reverse Phase Protein Array / Western blotting of ovarian cancer cells: HIF-1α", "type": "cell-based, Human", "description": "as §2, §1"}, "AKT [3]": {"test_system": "AKT", "assay": "in vivo pharmacodynamic experiment, OVCAR8 mouse model: AKT", "details": "dose of 500 mg/kg", "description": "as §3, §4"}, "[4]": {"test_system": "high-grade ovarian cancer cells (OVCAR8) labeled with luciferase gene", "assay": "in vivo therapy experiment, orthotopic OVCAR8-L ovarian cancer mouse model", "parameters": "species or system mice", "details": "GP-2250 500 mg/kg 3 times per week i.p., PARP inhibitor 50 mg/kg 5 times per week i.p., take down day 49", "description": "FIG. 1 schematically illustrates the experimental design for in vivo testing of the GP-2250 and PARP inhibitors on OVCAR8-L mice. The experiment includes testing: vehicle control, Ringer's solution (10 mice, 200 μl, i.p.); 2) GP-2250 (10 mice, 500 mg/kg. 3 times per week, i.p.); 3) Olaparib (10 mice, 50 mg/kg, 5 times per week, i.p.); 4) the combination of GP-2250 and Olaparib; 5) Niraparib (10 mice, 50 mg/kg, 5 times per week, i.p.); 6) the combination of GP-2250 and Niraparib (10 mice): 7) Rucparib (10 mice, 50 mg/kg, 5 times per week, i.p.); 8) the combination of GP-2250 and Rucaparib . . .\nTumorigenicity of OVCAR8-L was determined using IVIS imaging. IVIS imaging following OCVAR8-L injection. 1×10^6 cells were injected through i.p., and then tumorigenicity was measured. All mice were injected with high-grade ovarian cancer cells (OVCAR8) labeled with luciferase gene by i.p. route.\nas §3"}, "AKT [5]": {"test_system": "AKT", "assay": "Reverse Phase Protein Array / Western blotting of ovarian cancer cells: AKT", "type": "cell-based, Human", "description": "as §2, §1"}, "[6]": {"test_system": "ovarian cancer cell lines", "assay": "cytotoxic effect / cell viability assay in ovarian cancer cell lines", "type": "cell-based, Human", "description": "as §2, §1, §3"}, "solubility": {"assay": "solubility", "type": "physicochemical"}, "[7]": {"details": "Western blot, ovarian cancer cells treated for 24 hours"}}, "note": "“Also recorded” adds a separate entry of the source."}
{"smiles": "O=S1(=O)CCOCN1", "note": "[GP-2250]", "values": [{"measurement": "ATP synthesis", "setting": "cancer cells", "result": "reduced"}, {"measurement": "glycolysis", "setting": "cancer cells", "result": "decreases; also recorded: reduced"}, {"measurement": "mTOR activation and expression level", "setting": "mTOR [1]; RPPA analyses", "result": "inhibited"}, {"measurement": "mTOR expression", "setting": "mTOR [1]; [7]", "result": "inhibits"}, {"measurement": "hexokinase2 activity and expression", "setting": "hexokinase2", "result": "inhibition; also recorded: significantly reduced"}, {"measurement": "downregulation of mTOR activation and expression", "setting": "mTOR [2]", "result": "most effective"}, {"measurement": "hypoxia-inducible factor-1a activation and expression level", "setting": "HIF-1α; RPPA analyses", "result": "inhibited"}, {"measurement": "HIF-1α expression", "setting": "HIF-1α; [7]", "result": "inhibits"}, {"measurement": "downregulation of AKT activation and expression", "setting": "AKT [3]", "result": "most effective"}, {"measurement": "tumor nodules (number)", "setting": "[4]", "result": "2.9±0.48"}, {"measurement": "tumor weight", "setting": "[4]", "result": "2.9 ± 0.48", "unit": "g"}, {"measurement": "AKT activation and expression level", "setting": "AKT [5]; RPPA analyses", "result": "inhibited"}, {"measurement": "AKT expression", "setting": "AKT [5]; [7]", "result": "inhibits"}, {"measurement": "cytotoxic effect: vulnerability of HRD versus HRP ovarian cancer cells", "setting": "[6]; HRD cells (Kuramochi, OVCAR4, OVCAR8) compared with HRP cells (A2780, OVCAR5), both vulnerable", "result": "more vulnerable"}, {"measurement": "apoptosis", "setting": "[6]; ovarian cancer cells", "result": "increased apoptosis"}, {"measurement": "proliferation", "setting": "[6]; ovarian cancer cells", "result": "reduced proliferation"}]}
{"smiles": "NC(=O)c1cccc2cn(-c3ccc([C@@H]4CCCNC4)cc3)nc12", "note": "[niraparib]", "values": [{"measurement": "tumor nodules (number)", "setting": "[4]", "result": "3.4±0.44"}, {"measurement": "tumor weight", "setting": "[4]", "result": "0.38 ± 0.05", "unit": "g"}]}
{"smiles": "O=C(c1cc(Cc2n[nH]c(=O)c3ccccc23)ccc1F)N1CCN(C(=O)C2CC2)CC1", "note": "[olaparib]", "values": [{"measurement": "tumor nodules (number)", "setting": "[4]", "result": "3.3±0.64"}, {"measurement": "tumor weight", "setting": "[4]", "result": "0.53 ± 0.09", "unit": "g"}]}
{"smiles": "CNCc1ccc(-c2[nH]c3cc(F)cc4c3c2CCNC4=O)cc1", "note": "[rucaparib]", "values": [{"measurement": "tumor nodules (number)", "setting": "[4]", "result": "4.85±0.79"}, {"measurement": "tumor weight", "setting": "[4]", "result": "0.52 ± 0.1", "unit": "g"}, {"measurement": "solubility", "setting": "solubility", "result": "relatively poor solubility"}]}
